Assays:
[1] = target: T1, human M2 muscarinic acetylcholine receptor (hM2R) (Homo sapiens, UniProt P08172); test: M2 (h) functional GPCR assay, antagonist effect, cAMP HTRF; type: cell-based; settings: CHO
T1 construct: host or cells: CHO cells
T1 sequence (P08172 1-466): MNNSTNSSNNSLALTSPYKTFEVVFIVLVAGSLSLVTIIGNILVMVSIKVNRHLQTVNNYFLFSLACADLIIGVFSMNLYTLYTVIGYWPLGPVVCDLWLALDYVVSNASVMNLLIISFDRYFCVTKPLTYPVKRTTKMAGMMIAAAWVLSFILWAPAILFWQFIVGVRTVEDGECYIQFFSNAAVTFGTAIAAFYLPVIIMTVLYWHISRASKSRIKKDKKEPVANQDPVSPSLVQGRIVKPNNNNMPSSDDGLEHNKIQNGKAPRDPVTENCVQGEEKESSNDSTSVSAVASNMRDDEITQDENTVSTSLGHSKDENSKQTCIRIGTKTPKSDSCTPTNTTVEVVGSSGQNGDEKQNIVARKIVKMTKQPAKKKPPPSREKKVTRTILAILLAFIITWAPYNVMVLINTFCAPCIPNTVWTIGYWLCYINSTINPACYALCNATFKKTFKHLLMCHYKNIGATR

[2] = set-up: method as in PMID 31943245; settings: rats, cited from earlier work
[3] = target: T2, human M4 muscarinic acetylcholine receptor (hM4R) (Homo sapiens, UniProt P08173); test: M4 (h) functional GPCR assay, antagonist effect, cAMP HTRF; type: cell-based; settings: CHO
T2 construct: host or cells: CHO cells
T2 sequence (P08173 1-479): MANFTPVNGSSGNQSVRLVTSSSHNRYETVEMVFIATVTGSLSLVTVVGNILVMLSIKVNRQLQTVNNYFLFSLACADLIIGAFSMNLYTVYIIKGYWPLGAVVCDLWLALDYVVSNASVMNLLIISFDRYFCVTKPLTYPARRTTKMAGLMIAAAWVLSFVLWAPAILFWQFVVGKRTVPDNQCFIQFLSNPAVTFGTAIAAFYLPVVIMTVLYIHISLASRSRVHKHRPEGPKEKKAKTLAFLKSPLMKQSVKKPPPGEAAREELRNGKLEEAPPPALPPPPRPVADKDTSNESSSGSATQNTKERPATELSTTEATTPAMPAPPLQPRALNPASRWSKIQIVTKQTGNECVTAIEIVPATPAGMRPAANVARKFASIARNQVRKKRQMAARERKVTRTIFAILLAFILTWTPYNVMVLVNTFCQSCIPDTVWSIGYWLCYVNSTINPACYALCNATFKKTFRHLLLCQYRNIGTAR
Protocol: The cellular and nuclear receptor functional assays were carried out at Eurofins Cerep (Le Bois I’ Eveque, France) following the in-house protocols (catalog items G029-1262, G029-1474, G030-1658, G030-1659, G031-1243, G031-1244, G032-1670, G032-1671, G033-4217, and G033-4212). The experimental methods for the assays were as described in the previous reports and the general methodology is summarized in the Supplementary Information Table S1. Recombinant human Chinese hamster ovary (CHO) cells and rat basophilic leukemic (RBL) cells were transfected with the GPCR genes of interest (hM1R, hM2R, hM3R, hM4R, and hM5R). The functional assay provided the readouts based on the measurements of calcium ion mobilization (for the Gαq/11-coupled receptors) and cAMP level (for the Gαi/o-coupled receptors).
Stable CHO cells expressing the transfected cDNA of human M2 receptors were suspended in a medium containing HBSS buffer complemented with 20-mM HEPES buffer (pH 7.4) and 500-µM IBMX, whereas the stable human M4 receptor cloned CHO cells were distributed in HBSS buffer with 20-mM HEPES/NaOH (pH 7.4), 70-mM NaCl, 5.33-mM KCl, 1.25-mM CaCl2, 0.5-mM MgCl2, 0.41-mM MgSO4, 0.441-mM KH2PO4, 0.3-mM Na2HPO4, 0.1% glucose, and 500-µM IBMX. […] The cAMP level was calculated as the ratio of the signal measured at 665 nm to that measured at 620 nm. […]
Assay Source Stimulus Incubation Measured Detection References […]

[4] = target: T3, human M1 muscarinic acetylcholine receptor (hM1R) (Homo sapiens, UniProt P11229); test: M1 (h) functional GPCR assay, antagonist effect, intracellular Ca2+; type: cell-based; settings: CHO
T3 construct: host or cells: CHO cells
T3 sequence (P11229 whole entry): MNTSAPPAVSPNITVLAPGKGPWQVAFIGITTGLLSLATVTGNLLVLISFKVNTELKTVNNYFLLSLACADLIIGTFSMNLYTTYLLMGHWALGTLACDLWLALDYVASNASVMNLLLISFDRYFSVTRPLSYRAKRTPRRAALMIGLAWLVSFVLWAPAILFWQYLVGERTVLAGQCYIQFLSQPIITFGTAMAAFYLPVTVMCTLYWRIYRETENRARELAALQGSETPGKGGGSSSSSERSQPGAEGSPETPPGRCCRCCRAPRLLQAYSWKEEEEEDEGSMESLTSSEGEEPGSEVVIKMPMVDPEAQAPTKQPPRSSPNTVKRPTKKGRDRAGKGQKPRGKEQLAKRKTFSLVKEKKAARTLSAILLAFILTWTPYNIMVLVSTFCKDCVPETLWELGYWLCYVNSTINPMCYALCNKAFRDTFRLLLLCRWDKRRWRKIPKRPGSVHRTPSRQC

Structure (SMILES): Cc1coc2c1C(=O)C(=O)c1c-2ccc2c(C)cccc12 [Tanshinone I]
- inhibition at 100 µM [1]: 35.8 ± 4.74%
- tissue distribution ([2]; after oral administration): distribution of 1 into the brain
- half-life ([2]; oral administration, among tanshinones 1, 2, 3, and Dtan I): most extended half-life
- inhibition at 100 µM [3]: 56.1 ± 2.4%
- inhibition at 100 µM [4]: 13.8 ± 1.98%

Source: PMC8301926 (Biomolecules, 2021)
